According to PubChem BioAssay (NCI):
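The compound was tested at five concentrations on cells cultured in 96-well plates, with a 48-hour exposure period. Here, GI50 denotes the concentration required for 50% inhibition of growth. TGI denotes the concentration required for complete inhibition of growth.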

Key:
Assay in all cases: NCI-60 cell line screen, 48 h
CCRF-CEM leukemia = system: CCRF-CEM leukemia
LOX IMVI melanoma = system: LOX IMVI melanoma
SF-295 CNS = system: SF-295 CNS
UACC-257 melanoma = system: UACC-257 melanoma
786-0 renal = system: 786-0 renal
NCI-H226 lung = system: NCI-H226 lung
NCI-H23 lung = system: NCI-H23 lung
MDA-MB-468 breast = system: MDA-MB-468 breast
MCF7 breast = system: MCF7 breast
BT-549 breast = system: BT-549 breast
NCI-H522 lung = system: NCI-H522 lung
MDA-MB-231 breast = system: MDA-MB-231 breast
OVCAR-8 ovarian = system: OVCAR-8 ovarian
EKVX NSCLC = system: EKVX NSCLC
OVCAR-3 ovarian = system: OVCAR-3 ovarian
TK-10 renal = system: TK-10 renal
SK-OV-3 ovarian = system: SK-OV-3 ovarian
ACHN renal = system: ACHN renal
HS 578T breast = system: HS 578T breast
OVCAR-4 ovarian = system: OVCAR-4 ovarian
SNB-75 CNS = system: SNB-75 CNS
HL-60(TB) leukemia = system: HL-60(TB) leukemia
SN12C renal = system: SN12C renal
PC-3 prostate = system: PC-3 prostate
T-47D breast = system: T-47D breast
MALME-3M melanoma = system: MALME-3M melanoma
MOLT-4 leukemia = system: MOLT-4 leukemia
SR leukemia = system: SR leukemia
HOP-62 NSCLC = system: HOP-62 NSCLC
DU-145 prostate = system: DU-145 prostate
HCT-15 colon = system: HCT-15 colon
SF-268 CNS = system: SF-268 CNS
U251 CNS = system: U251 CNS
HCC-2998 colon = system: HCC-2998 colon
HOP-92 NSCLC = system: HOP-92 NSCLC
CAKI-1 renal = system: CAKI-1 renal
HT29 colon = system: HT29 colon
KM12 colon = system: KM12 colon
M14 melanoma = system: M14 melanoma
UACC-62 melanoma = system: UACC-62 melanoma
RPMI-8226 leukemia = system: RPMI-8226 leukemia
SNB-19 CNS = system: SNB-19 CNS
SF-539 CNS = system: SF-539 CNS
MDA-MB-435 = system: MDA-MB-435
A549 NSCLC = system: A549 NSCLC
SW-620 colon = system: SW-620 colon
SK-MEL-28 melanoma = system: SK-MEL-28 melanoma
COLO 205 colon = system: COLO 205 colon
K-562 leukemia = system: K-562 leukemia
NCI-H460 lung = system: NCI-H460 lung
SK-MEL-2 melanoma = system: SK-MEL-2 melanoma
RXF 393 renal = system: RXF 393 renal
SK-MEL-5 melanoma = system: SK-MEL-5 melanoma
IGROV1 ovarian = system: IGROV1 ovarian
A498 renal = system: A498 renal
OVCAR-5 ovarian = system: OVCAR-5 ovarian

Molecule `CN1C(=O)/C(=C/c2ccc3ncsc3c2)NC1=NC12CC3CC(CC(O)(C3)C1)C2` has a GI50 (CCRF-CEM leukemia) of 1.92 µM, a TGI (CCRF-CEM leukemia) of 8.18 µM and a GI50 (LOX IMVI melanoma) of 2.52 µM. It also gave a TGI (LOX IMVI melanoma) greater than 100 µM, a GI50 (SF-295 CNS) of 5.28 µM and a TGI (SF-295 CNS) greater than 100 µM. For the same molecule, the GI50 (UACC-257 melanoma) was 3.59 µM, the TGI (UACC-257 melanoma) was 12.5 µM and the GI50 (786-0 renal) was 4.02 µM. For the same molecule, the TGI (786-0 renal) was greater than 100 µM, the GI50 (NCI-H226 lung) was 2.7 µM and the TGI (NCI-H226 lung) was greater than 100 µM. The GI50 (NCI-H23 lung) was 2.48 µM, the TGI (NCI-H23 lung) was 13.9 µM and the GI50 (MDA-MB-468 breast) was 1.48 µM. It also gave a TGI (MDA-MB-468 breast) of 15.9 µM, a GI50 (MCF7 breast) of 2.98 µM and a TGI (MCF7 breast) greater than 100 µM. It also gave a GI50 (BT-549 breast) of 1.17 µM, a TGI (BT-549 breast) of 10.3 µM and a GI50 (NCI-H522 lung) of 0.768 µM. The TGI (NCI-H522 lung) was 4.49 µM, the GI50 (MDA-MB-231 breast) was 4.26 µM and the TGI (MDA-MB-231 breast) was 85.4 µM. The GI50 (OVCAR-8 ovarian) was 3.01 µM, the TGI (OVCAR-8 ovarian) was greater than 100 µM and the GI50 (EKVX NSCLC) was 4.25 µM. The TGI (EKVX NSCLC) was greater than 100 µM, the GI50 (OVCAR-3 ovarian) was 1.4 µM and the TGI (OVCAR-3 ovarian) was 6.18 µM. The GI50 (TK-10 renal) was 4.44 µM, the TGI (TK-10 renal) was greater than 100 µM and the GI50 (SK-OV-3 ovarian) was 2.21 µM. For the same molecule, the TGI (SK-OV-3 ovarian) was greater than 100 µM, the GI50 (ACHN renal) was 0.892 µM and the TGI (ACHN renal) was greater than 100 µM. It also gave a GI50 (HS 578T breast) of 2.16 µM, a TGI (HS 578T breast) of 8.97 µM and a GI50 (OVCAR-4 ovarian) of 9.29 µM. For the same molecule, the TGI (OVCAR-4 ovarian) was greater than 100 µM, the GI50 (SNB-75 CNS) was 1.02 µM and the TGI (SNB-75 CNS) was 7.89 µM. The GI50 (HL-60(TB) leukemia) was 3.2 µM, the TGI (HL-60(TB) leukemia) was 8.15 µM and the GI50 (SN12C renal) was 2.07 µM. For the same molecule, the TGI (SN12C renal) was 49.6 µM, the GI50 (PC-3 prostate) was 3.73 µM and the TGI (PC-3 prostate) was greater than 100 µM. For the same molecule, the GI50 (T-47D breast) was 3.32 µM, the TGI (T-47D breast) was greater than 100 µM and the GI50 (MALME-3M melanoma) was 2.98 µM. For the same molecule, the TGI (MALME-3M melanoma) was 8.25 µM, the GI50 (MOLT-4 leukemia) was 2.22 µM and the TGI (MOLT-4 leukemia) was 22.3 µM. The GI50 (SR leukemia) was 0.534 µM, the TGI (SR leukemia) was 5.37 µM and the GI50 (HOP-62 NSCLC) was 4.13 µM. The TGI (HOP-62 NSCLC) was greater than 100 µM, the GI50 (DU-145 prostate) was 2.97 µM and the TGI (DU-145 prostate) was greater than 100 µM. For the same molecule, the GI50 (HCT-15 colon) was 2.13 µM, the TGI (HCT-15 colon) was greater than 100 µM and the GI50 (SF-268 CNS) was 4.47 µM. The TGI (SF-268 CNS) was 34.5 µM, the GI50 (U251 CNS) was 3.14 µM and the TGI (U251 CNS) was greater than 100 µM. For the same molecule, the GI50 (HCC-2998 colon) was 7.66 µM, the TGI (HCC-2998 colon) was greater than 100 µM and the GI50 (HOP-92 NSCLC) was 5.31 µM. It also gave a TGI (HOP-92 NSCLC) of 56.9 µM, a GI50 (CAKI-1 renal) of 1.64 µM and a TGI (CAKI-1 renal) greater than 100 µM. It also gave a GI50 (HT29 colon) of 3.85 µM, a TGI (HT29 colon) of 17.8 µM and a GI50 (KM12 colon) of 2.81 µM. It also gave a TGI (KM12 colon) greater than 100 µM, a GI50 (M14 melanoma) of 4.28 µM and a TGI (M14 melanoma) of 34.4 µM. It also gave a GI50 (UACC-62 melanoma) of 2.22 µM, a TGI (UACC-62 melanoma) of 9.09 µM and a GI50 (RPMI-8226 leukemia) of 1.98 µM. It also gave a TGI (RPMI-8226 leukemia) of 6.83 µM, a GI50 (SNB-19 CNS) of 3.47 µM and a TGI (SNB-19 CNS) greater than 100 µM. The GI50 (SF-539 CNS) was 1.29 µM, the TGI (SF-539 CNS) was 5.82 µM and the GI50 (MDA-MB-435) was 3.69 µM. The TGI (MDA-MB-435) was 20 µM, the GI50 (A549 NSCLC) was 1.98 µM and the TGI (A549 NSCLC) was greater than 100 µM. The GI50 (SW-620 colon) was 2.74 µM, the TGI (SW-620 colon) was 17.3 µM and the GI50 (SK-MEL-28 melanoma) was 2.57 µM. For the same molecule, the TGI (SK-MEL-28 melanoma) was 8.69 µM, the GI50 (COLO 205 colon) was 3.18 µM and the TGI (COLO 205 colon) was 30.5 µM. The GI50 (K-562 leukemia) was 1.7 µM, the TGI (K-562 leukemia) was greater than 100 µM and the GI50 (NCI-H460 lung) was 2.22 µM. It also gave a TGI (NCI-H460 lung) greater than 100 µM, a GI50 (SK-MEL-2 melanoma) of 1.98 µM and a TGI (SK-MEL-2 melanoma) of 9.48 µM. For the same molecule, the GI50 (RXF 393 renal) was 1.85 µM, the TGI (RXF 393 renal) was 12.2 µM and the GI50 (SK-MEL-5 melanoma) was 2.02 µM. It also gave a TGI (SK-MEL-5 melanoma) of 5.07 µM, a GI50 (IGROV1 ovarian) of 2.82 µM and a TGI (IGROV1 ovarian) greater than 100 µM. For the same molecule, the GI50 (A498 renal) was 1.6 µM, the TGI (A498 renal) was 6.68 µM and the GI50 (OVCAR-5 ovarian) was 5.12 µM. The TGI (OVCAR-5 ovarian) was greater than 100 µM.
